# Measured values taken from patent publication US10239870B2, “Dopamine D3 receptor antagonists” (priority 2014, dated 2019).
# pKi: −log10 of the molar value. Structures can show the parent of a compound that is named as a salt.
# Legend:
# [1] = molecular target: hD2 recombinant receptor (human dopamine receptor type 2, long variant, CHO-Gα16-hD2L cells) (Homo sapiens (Human), UniProt P14416); assay: cell-based; conditions: D2 fpKi, functional pKi; antagonism of dopamine EC80 calcium response (FLIPR)
# [2] = molecular target: hD2 recombinant receptor (human dopamine receptor type 2, long variant, CHO-Gα16-hD2L membranes) (Homo sapiens (Human), UniProt P14416); conditions: displacement of 0.08 nM [3H]-Spiperone
SMILES,pKi [1],D2 pKi [2]
"Cn1c(SCCCN2CC[C@]3(CC3c3ccc(C(F)(F)F)nc3)C2)nnc1C1CCOCC1 (stereo partly drawn) [Example 84, (1R,3S/1S,3R)-5-(3-{[4-methyl-5-(oxan-4-yl)-4H-1,2,4-triazol-3-yl]sulfanyl}propyl)-1-[6-(trifluoromethyl)pyridin-3-yl]-5-azaspiro[2.4]heptane]",< 5.00,–
"Cn1c(CCCCN2CC[C@@]3(C[C@@H]3c3ccc(C(F)(F)F)cc3)C2)nnc1C1CCOCC1 (single isomer, unassigned) [Example 300, (1R,3R or 1S,3S)-5-{4-[4-methyl-5-(oxan-4-yl)-4H-1,2,4-triazol-3-yl]butyl}-1-[4-(trifluoromethyl)phenyl]-5-azaspiro[2.4]heptane hydrochloride]",< 5.00,–
"Cn1c(SCCCN2CC[C@]3(C[C@@H]3c3ccc(C(F)(F)F)cc3)C2)nnc1-c1ccno1 [Example 229, (1R,3S/1S,3R)-5-(3-{[4-methyl-5-(1,2-oxazol-5-yl)-4H-1,2,4-triazol-3-yl]sulfanyl}propyl)-1-[4-(trifluoromethyl)phenyl]-5-azaspiro[2.4]heptane]",5.63,–
"Cc1ncoc1-c1nnc(CCCCN2CC[C@]3(CC3c3ccc(C(F)(F)F)cc3)C2)n1C (stereo partly drawn) [Example 301, (1R,3S/1S,3R)-5-{4-[4-methyl-5-(4-methyl-1,3-oxazol-5-yl)-4H-1,2,4-triazol-3-yl]butyl}-1-[4-(trifluoromethyl)phenyl]-5-azaspiro[2.4]heptane hydrochloride]",5.84,–
"Cn1c(SCCCN2CC[C@@]3(C[C@@H]3c3ccc(C(F)(F)F)cc3F)C2)nnc1C1CCOCC1 (single isomer, unassigned) [Example 74, (1S,3R or 1R,3S)-1-[2-fluoro-4-(trifluoromethyl)phenyl]-5-(3-{[4-methyl-5-(oxan-4-yl)-4H-1,2,4-triazol-3-yl]sulfanyl}propyl)-5-azaspiro[2.4]heptane hydrochloride]",5.90,–
"Cn1c(SCCCN2CC[C@]3(C[C@@H]3c3ccc(C(F)(F)F)cc3F)C2)nnc1-c1ccn2cnnc2c1 [Example 270, (1S,3S)-1-[2-fluoro-4-(trifluoromethyl)phenyl]-5-{3-[(4-methyl-5-{[1,2,4]triazolo[4,3-a]pyridin-7-yl}-4H-1,2,4-triazol-3-yl)sulfanyl]propyl}-5-azaspiro[2.4]heptane]",–,6.04
"Cn1c(SCCCN2CC[C@]3(CC3c3ccccc3C(F)(F)F)C2)nnc1-c1ccc(=O)[nH]c1 (stereo partly drawn) [Example 132, 5-[4-methyl-5-({3-[(1S,3S/1R,3R)-1-[2-(trifluoromethyl)phenyl]-5-azaspiro[2.4]heptan-5-yl]propyl}sulfanyl)-4H-1,2,4-triazol-3-yl]-1,2-dihydropyridin-2-one]",–,6.87
"Cn1c(SCCCN2CC[C@]3(CC3c3ccccc3C(F)(F)F)C2)nnc1-c1cc[nH]c(=O)c1 (stereo partly drawn) [Example 135, 4-[4-methyl-5-({3-[(1S,3S/1R,3R)-1-[2-(trifluoromethyl)phenyl]-5-azaspiro[2.4]heptan-5-yl]propyl}sulfanyl)-4H-1,2,4-triazol-3-yl]-1,2-dihydropyridin-2-one]",–,6.54
"Cn1c(SCCCN2CC[C@]3(CC3c3ccc(F)cc3F)C2)nnc1-c1ccc(=O)[nH]c1 (stereo partly drawn) [Example 130, 5-[5-({3-[(1S,3S/1R,3R)-1-(2,4-difluorophenyl)-5-azaspiro[2.4]heptan-5-yl]propyl}sulfanyl)-4-methyl-4H-1,2,4-triazol-3-yl]-1,2-dihydropyridin-2-one]",–,6.16
"Cl.Cn1c(SCCCN2CC[C@]3(C[C@@H]3c3ccc(C(F)(F)F)cc3)C2)nnc1-c1ccc2nncn2c1 [Example 268, (1R,3S)-5-{3-[(4-methyl-5-{[1,2,4]triazolo[4,3-a]pyridin-6-yl}-4H-1,2,4-triazol-3-yl)-sulfanyl]propyl}-1-[4-(trifluoromethyl)phenyl]-5-azaspiro[2.4]heptane]",–,5.80
"Cn1c(SCCCN2CC[C@]3(CC3c3ccc(C(F)(F)F)cc3F)C2)nnc1-c1ccc(=O)[nH]c1 (stereo partly drawn) [Example 129, 5-[5-({3-[(1S,3S/1R,3R)-1-[2-fluoro-4-(trifluoromethyl)phenyl]-5-azaspiro[2.4]heptan-5-yl]propyl}sulfanyl)-4-methyl-4H-1,2,4-triazol-3-yl]-1,2-dihydropyridin-2-one]",–,6.35
"Cn1c(SCCCN2CC[C@]3(C[C@@H]3c3ccc(C(F)(F)F)cc3)C2)nnc1-c1cnc(C(N)=O)cn1 [Example 228, 5-[4-methyl-5-({3-[(1R,3S)-1-[4-(trifluoromethyl)phenyl]-5-azaspiro[2.4]heptan-5-yl]propyl}sulfanyl)-4H-1,2,4-triazol-3-yl]pyrazine-2-carboxamide]",–,6.33
"COCCC(=O)N1CCC(c2nnc(SCCCN3CC[C@]4(C[C@@H]4c4ccc(C(F)(F)F)cc4)C3)n2C)CC1.Cl [Example 104, 3-methoxy-1-{4-[4-methyl-5-({3-[(1R,3S)-1-[4-(trifluoromethyl)phenyl]-5-azaspiro[2.4]heptan-5-yl]propyl}sulfanyl)-4H-1,2,4-triazol-3-yl]piperidin-1-yl}propan-1-one hydrochloride]",–,5.80

# The remaining lines, values ahead:
pKi [1],D2 pKi [2],SMILES
6.44,–,"Cn1c(SCCCN2CC[C@]3(C[C@@H]3c3ccc(C(F)(F)F)cc3F)C2)nnc1C1CCOCC1 (single isomer, unassigned) [Example 79, hydrochloride]"
< 5.00,–,"Cn1c(CCCCN2CC[C@]3(C[C@H]3c3ccc(C(F)(F)F)cc3)C2)nnc1C1CCOCC1 (single isomer, unassigned) [Example 299, (1S,3S or 1R,3R)-5-{4-[4-methyl-5-(oxan-4-yl)-4H-1,2,4-triazol-3-yl]butyl}-1-[4-(trifluoromethyl)phenyl]-5-azaspiro[2.4]heptane hydrochloride]"
7.09,–,"Cn1c(SCCCN2CC[C@]3(CC3c3ccc(C(F)(F)F)cc3F)C2)nnc1-c1ccncn1 (stereo partly drawn) [Example 213, (1S,3S/1R,3R)-1-[2-fluoro-4-(trifluoromethyl)phenyl]-5-(3-{[4-methyl-5-(pyrimidin-4-yl)-4H-1,2,4-triazol-3-yl]sulfanyl}propyl)-5-azaspiro[2.4]heptane]"
–,6.01,"Cc1ccc(-c2nnc(SCCCN3CC[C@]4(CC4c4ccc(C(F)(F)F)cc4)C3)n2C)cn1 (stereo partly drawn) [Example 169, (1R,3S/1S,3R)-5-(3-{[4-methyl-5-(6-methylpyridin-3-yl)-4H-1,2,4-triazol-3-yl]sulfanyl}propyl)-1-[4-(trifluoromethyl)phenyl]-5-azaspiro[2.4]heptane]"
–,6.00,"CC(=O)N1CCC(c2nnc(SCCCN3CC[C@]4(C[C@@H]4c4ccc(C(F)(F)F)cc4F)C3)n2C)CC1.Cl [Example 102, 1-{4-[5-({3-[(1S,3S)-1-[2-fluoro-4-(trifluoromethyl)phenyl]-5-azaspiro[2.4]heptan-5-yl]propyl}sulfanyl)-4-methyl-4H-1,2,4-triazol-3-yl]piperidin-1-yl}ethan-1-one hydrochloride]"
–,6.05,"Cl.Cn1c(SCCCN2CC[C@]3(C[C@@H]3c3ccc(C(F)(F)F)cc3)C2)nnc1C1CCN(C(=O)C2CC2)CC1 [Example 106, (1R,3S)-5-(3-{[5-(1-cyclopropanecarbonylpiperidin-4-yl)-4-methyl-4H-1,2,4-triazol-3-yl]sulfanyl}propyl)-1-[4-(trifluoromethyl)phenyl]-5-azaspiro[2.4]heptane hydrochloride]"
